Assay results from patent US20250340570A1, “COMPOSITIONS USEFUL FOR MODULATING SPLICING” (Skyhawk Therapeutics, Inc., priority 2022, published 2025).
pIC50: −log10 of the molar value.

How the values were obtained:
[1] = test system: total ATXN3 protein; experiment: ATXN3 total protein assay (Mesoscale Discovery); assay type: cell-based; details: Human neuroblastoma SK-N-MC cells, 48 hours incubation, MSD assay
Description: Human neuroblastoma SK-N-MC cells were seeded at 10,000 cells/well in 384 well plates one day prior to compound treatment. The concentrations of compounds were tested at appropriate doses ranging from 30 µM to 0.6 nM. After incubation for 48 hours, the cells were lysed with 25.L of lysis buffer containing protease inhibitors, and total ATXN3 protein levels were assessed by Mesoscale Discovery (MSD) assay developed with one pair of and-ATXN3 antibodies. The capture and detect antibodies were raised in mouse and rabbit respectively. Anti-rabbit MSD-ST antibody was used for secondary antibody.
ATXN3 recombinant protein was used for standards. The readouts were captured with 35.L of MSD read buffer and multi-array 384-well high binding plates.

[2] = test system: ATXN3 transcripts containing exon 4; experiment: ATXN3 quantitative splicing assay (qPCR, E4E5 transcripts containing exon 4); assay type: cell-based; details: Human neuroblastoma SK-N-MC cells, 24 h treatment, qPCR primers/probe E4E5
Description: Human neuroblastoma SK-N-MC cells were plated in 384-well plates at 20,000 cells/well. Twenty-four hours after plating, cells were treated with compounds for 24 h at appropriate concentrations ranging from 30 μM to 0.6 nM (0.3% DMSO). Treated cells were lysed in 15 μL of lysis buffer, and cDNA was synthesized using the Fast Advanced Cells-to-Ct kit. Two μL of each cDNA was used in qPCR reactions to confirm the exon 4 skipped transcripts of ATXN3. A second set of primers/probe E4E5 was used to detect the transcripts containing exon 4. The third set of primers/probe E8E9 was used to detect total gene level of ATXN3. The qPCR reactions were prepared in 384-well plates in 10.L volume, using TaqMan™ Fast Advanced Master Mix with primers and probes shown in the table below. Reactions were run in a Quant Studio 6 qPCR instrument with default settings.
The primers and probes are listed below in Table 5.

| pIC50 [1] | pIC50 [2] | Compound |
| --- | --- | --- |
| 5.30 to 6.30 | 6.30 to 7.00 | C[C@@H](F)[C@H](N)Cc1sc2c(NCc3cccs3)snc2c1Cl [Compound 75, 7-[(2R,3R)-2-amino-3-fluorobutyl]-8-chloro-4-thenylamino-3,6-dithia-2-azabicyclo[3.3.0]octa-1,4,7-triene] |
| 4.40 to 5.00 | 4.40 to 5.00 | CC(=O)N[C@@H](C)Cc1sc2c(NCc3cccs3)snc2c1C [Compound 79, N-[(2S)-1-{6-methyl-3-[(thiophen-2-ylmethyl)amino]thieno[3,2-c][1,2]thiazol-5-yl}propan-2-yl]acetamide] |
| 5.00 to 5.30 | 5.30 to 6.30 | N[C@H](Cc1sc2c(NCc3cccs3)snc2c1Br)C1CC(F)(F)C1 [Compound 80, 7-[(R)-2-amino-2-(3,3-difluorocyclobutyl)eth-yl]-8-bromo-4-thenylamino-3,6-dithia-2-azabicyclo[3.3.0]octa-1,4,7-triene] |
| 4.40 to 5.00 | 4.40 to 5.00 | FC(F)(F)c1csc2c(NCc3ccco3)snc12 [Compound 82, (furfuryl){8-(trifluoromethyl)-3,6-dithia-2-azabicyclo[3.3.0]octa-1,4,7-trien-4-yl}amine] |
| 5.00 to 5.30 | 5.30 to 6.30 | Cc1c(C[C@@H](N)C2CC(F)(F)C2)sc2c(NCc3cccs3)snc12 [Compound 84, 7-[(R)-2-amino-2-(3,3-difluorocyclobutyl)eth-yl]-8-methyl-4-thenylamino-3,6-dithia-2-azabicyclo[3.3.0]octa-1,4,7-triene] |
| 4.40 to 5.00 | 4.40 to 5.00 | CC(=O)Nc1csc2c(NCc3cccs3)snc12 [Compound 88, N-(4-thenylamino-3,6-dithia-2-azabicyclo[3.3.0]octa-1,4,7-trien-8-yl)acetamide] |
| 5.30 to 6.30 | 5.00 to 5.30 | N[C@H](Cc1sc2c(NCc3cccs3)snc2c1Cl)C(CO)CO [Compound 89, 2-{(R)-1-amino-2-(8-chloro-4-thenylamino-3,6-dithia-2-azabicyclo[3.3.0]octa-1,4,7-trien-7-yl)ethyl}-1,3-propanediol] |
| 4.40 to 5.00 | 4.40 to 5.00 | CSc1csc2c(NCc3ccco3)snc12 [Compound 90, (furfuryl){8-(methylthio)-3,6-dithia-2-azabicyclo[3.3.0]octa-1,4,7-trien-4-yl}amine] |
| 5.30 to 6.30 | 5.30 to 6.30 | C[C@H](F)[C@H](N)Cc1sc2c(NCc3sccc3F)snc2c1Br [Compound 93, 7-[(2R,3S)-2-amino-3-fluorobutyl]-8-bromo-4-{[(3-fluoro-2-thienyl)methyl]amino}-3,6-dithia-2-azabicyclo[3.3.0]octa-1,4,7-triene] |
| 5.00 to 5.30 | 5.00 to 5.30 | C[C@@H](F)[C@H](N)Cc1sc2c(NCc3sccc3F)snc2c1Cl [Compound 94, 7-[(2R,3R)-2-amino-3-fluorobutyl]-8-chloro-4-{[(3-fluoro-2-thienyl)methyl]amino}-3,6-dithia-2-azabicyclo[3.3.0]octa-1,4,7-triene] |
| 5.30 to 6.30 | 5.30 to 6.30 | C[C@H](F)[C@H](N)Cc1sc2c(NCc3sccc3F)snc2c1Cl [Compound 95, 7-[(2R,3S)-2-amino-3-fluorobutyl]-8-chloro-4-{[(3-fluoro-2-thienyl)methyl]amino}-3,6-dithia-2-azabicyclo[3.3.0]octa-1,4,7-triene] |
| 5.00 to 5.30 | 5.30 to 6.30 | C[C@H](F)[C@H](N)Cc1sc2c(NCc3ccc(F)s3)snc2c1Cl [Compound 96, 7-[(2R,3S)-2-amino-3-fluorobutyl]-8-chloro-4-{[(5-fluoro-2-thienyl)methyl]amino}-3,6-dithia-2-azabicyclo[3.3.0]octa-1,4,7-triene] |
| 5.30 to 6.30 | 5.30 to 6.30 | C=Cc1c(C[C@@H](N)[C@H](C)F)sc2c(NCc3cccs3)snc12 [Compound 97, 7-[(2R,3S)-2-amino-3-fluorobutyl]-4-thenylamino-8-vinyl-3,6-dithia-2-azabicyclo[3.3.0]octa-1,4,7-triene] |
| 5.30 to 6.30 | 5.30 to 6.30 | C[C@H](N)C(F)(F)c1sc2c(NCc3cccs3)snc2c1Cl [Compound 98, 7-[(S)-2-amino-1,1-difluoropropyl]-8-chloro-4-thenylamino-3,6-dithia-2-azabicyclo[3.3.0]octa-1,4,7-triene] |
| 5.30 to 6.30 | 5.30 to 6.30 | C[C@H](N)C(F)(F)c1sc2c(NCc3cccs3)snc2c1Br [Compound 99, 5-[(2S)-2-amino-1,1-difluoropropyl]-6-bromo-N-(thiophen-2-ylmethyl)thieno[3,2-c][1,2]thiazol-3-amine] |
| 5.30 to 6.30 | 5.30 to 6.30 | N[C@@H](COC1CC1)Cc1sc2c(NCc3cccs3)snc2c1Br [Compound 100, 7-[(R)-2-amino-3-cyclopropoxypropyl]-8-bromo-4-thenylamino-3,6-dithia-2-azabicyclo[3.3.0]octa-1,4,7-triene] |
| 5.30 to 6.30 | 5.30 to 6.30 | N[C@H](Cc1sc2c(NCc3ccco3)snc2c1Cl)C(F)F [Compound 101, 7-[(R)-2-amino-3,3-difluoropropyl]-8-chloro-4-(furfurylamino)-3,6-dithia-2-azabicyclo[3.3.0]octa-1,4,7-triene] |
| 4.40 to 5.00 | 4.40 to 5.00 | C[C@H](N)C(O)c1sc2c(NCc3cccs3)snc2c1Cl (stereo partly drawn) [Compound 102, (2S)-2-amino-1-(8-chloro-4-thenylamino-3,6-dithia-2-azabicyclo[3.3.0]octa-1,4,7-trien-7-yl)-1-propanol] |
| 4.40 to 5.00 | 4.40 to 5.00 | C[C@H](N)C(O)c1sc2c(NCc3cccs3)snc2c1Br (stereo partly drawn) [Compound 103, (2S)-2-amino-1-{6-bromo-3-[(thiophen-2-ylmethyl)amino]thieno[3,2-c][1,2]thiazol-5-yl}propan-1-ol] |
| 5.30 to 6.30 | 5.30 to 6.30 | N[C@@H](CF)Cc1sc2c(NCc3nccs3)snc2c1Br [Compound 104, 7-[(R)-2-amino-3-fluoropropyl]-8-bromo-4-{[(1,3-thiazol-2-yl)methyl]amino}-3,6-dithia-2-azabicyclo[3.3.0]octa-1,4,7-triene] |
| 6.30 to 7.00 | 6.30 to 7.00 | C[C@H](F)[C@H](N)Cc1sc2c(NCc3nccs3)snc2c1Br [Compound 105, 7-[(2R,3S)-2-amino-3-fluorobutyl]-8-bromo-4-{[(1,3-thiazol-2-yl)methyl]amino}-3,6-dithia-2-azabicyclo[3.3.0]octa-1,4,7-triene] |

| Compound | pIC50 [1] | pIC50 [2] |
| --- | --- | --- |
| C[C@H](N)Cc1sc2c(NCc3nccs3)snc2c1Cl [Compound 76, 7-[(S)-2-aminopropyl]-8-chloro-4-{[(1,3-thiazol-2-yl)methyl]amino}-3,6-dithia-2-azabicyclo[3.3.0]octa-1,4,7-triene] | 6.30 to 7.00 | 6.30 to 7.00 |
| C[C@H](N)Cc1sc2c(NCc3ccco3)snc2c1C(F)(F)F [Compound 81, 7-[(S)-2-aminopropyl]-4-(furfurylamino)-8-(trifluoromethyl)-3,6-dithia-2-azabicyclo[3.3.0]octa-1,4,7-triene] | 5.30 to 6.30 | 5.30 to 6.30 |
| CSc1c(C[C@H](C)N)sc2c(NCc3ccco3)snc12 [Compound 85, 7-[(S)-2-aminopropyl]-4-(furfurylamino)-8-(methylthio)-3,6-dithia-2-azabicyclo[3.3.0]octa-1,4,7-triene] | 4.40 to 5.00 | 5.00 to 5.30 |
| C[C@H](N)Cc1sc2c(NCc3cccs3)snc2c1CO [Compound 87, {7-[(S)-2-aminopropyl]-4-thenylamino-3,6-dithia-2-azabicyclo[3.3.0]octa-1,4,7-trien-8-yl}methanol] | 4.40 to 5.00 | 4.40 to 5.00 |
